Measured values from patent US20220096515A1, “Methods and Formulations for Preventing Neurological or Psychiatric Disorders” (Huntington Medical Research Institutes, priority 2020, published 2022).

Experiments:
Gabrb3^ECKO mice [1] = experiment: Nest building (nestlets and shredded paper); assay type: in vivo, mouse
Description: (§1) Behavioral Experiments: Mice were housed in our animal facility with a 12-hour light cycle with ad libitum access to food and water. Offspring stayed with their mothers until weaning at PND 21 after which males and females were separated. Before all behavioral testing, mice were acclimated to the testing room for 1 hour. Behavioral assays were performed according to established protocols referenced here: self-grooming, light-dark box, tail suspension test, Y-maze, open field locomotion activity, three chamber social interaction test and nest building with nestlets and with shredded paper. Both males and females were used for all behavioral assays. Experimenters scoring behaviors were blinded to the genotypes and treatment. Sample sizes for each assay are noted in figure legends.
Therefore, behavioral tests were performed to screen for stress, anxiety, locomotion, cognition, and sociability in saline-treated Gabrb3^fl/fl mice, saline-treated Gabrb3^ECKO mice and NAD^+-treated Gabrb3^ECKO mice. Mice from saline and NAD^+-treated groups were housed individually in cages containing wood chip bedding and two nestlets (pressed cotton) (FIGS. 16A-16D) or more naturalistic material like shredded paper strips (FIGS. 16E-16H). […] This rescue of home cage social behavior was a robust indication of well-being in NAD^+-treated Gabrb3^ECKO mice. […]

Gabrb3^ECKO mice [2] = experiment: Tail suspension test; assay type: in vivo, mouse; conditions: vs saline-treated Gabrb3^ECKO mice
Description: as §1
Anxiety was next assessed with the classic light-dark transition test which triggers a struggle between the desires to explore a novel environment versus natural aversion of a brightly illuminated open space. […] The Y maze spontaneous alternation test was used to evaluate for spatial learning and memory in the three groups of mice. After introduction to the center of the maze, the mice were given free access to all three arms. […] The total number of arm entries and the sequence of entries are recorded in order to calculate the percentage of alternation. […]

Gabrb3^fl/fl littermates = experiment: Prenatal NAD+ treatment, H&E of MGE in Gabrb3^fl/fl littermates; assay type: in vivo, mouse; conditions: NAD^+-treated Gabrb3^fl/fl littermates
Description: Histology, immunohistochemistry, and microscopic analysis: Paraffin immunohistochemistry (IHC) was performed on embryonic brains only while frozen section IHC was used on both embryonic and adult brains. Briefly, for paraffin IHC-E18 brains were fixed in zinc fixative (BD Biosciences PharMingen) for 24 h and processed for paraffin histology. Histological stainings with hematoxylin (Vector Laboratories) and eosin (Sigma) were performed on 8 μm coronal sections. Lectin histochemistry (with biotinylated isolectin B4, 1:50, Sigma) as well as IHC was performed on 20 μm sections. Primary antibodies used for IHC were as follows: anti-PHH3 (1:200, Millipore) and anti-NKX2.1, (1:50; Sigma) followed by secondary detection with AlexaFluor conjugates (Invitrogen). DAPI (Vector Laboratories) was used to label nuclei. For frozen section IHC, E18 and P90 brains were removed, fixed in 4% PFA for 24 hours, cryo-protected in sucrose gradient, embedded into OCT medium for frozen blocks; sectioned at 40 μm on a cryostat and immunostained with anti-GABA (1:80, Sigma) and anti -PROX1 (1:80, Millipore) antibodies. Twenty sections from each brain were used for IHC and histology experiments. Uniform penetration of antibodies or stains throughout the section was ascertained and quality of the staining in each digital section was examined. […]

[3] = tested on: cerebral cortex of Gabrb3^ECKO mice; experiment: In vivo multiphoton laser-scanning microscopy of cortical microvasculature; design: species or system mouse
Description: In vivo imaging of brain microvasculature by multiphoton laser-scanning microscopy: In vivo imaging of the brain vasculature in cranial window bearing mice was performed as described previously. Briefly, a cranial window was implanted by removing circular area of skull and dura. Then, the window was sealed with a 7 mm cover glass glued to the bone. For the measurement of red blood cell (RBC) velocity and blood vessel diameter, we used multiphoton laser-scanning microscopy (MPLSM). To avoid potential tissue/vessel alteration caused by the window implantation procedure, we performed imaging at least 10 days after cranial window implantation. For imaging, mice were anesthetized with ketamine/xylazine, then tetramethylrhodamine (TAMRA)-dextran (MW 500,000) was administrated through retro-orbital injection. Using TAMRA-dextran contrast enhanced angiography, region of interest is first identified. Since the intravenously injected dye labels only the blood plasma, RBCs appear as dark patches moving within the vessel lumen. Centerline RBC velocity was measured by repetitively scanning a line along the central axis of a single blood vessel (x-t) and enabling the tracking of the motion of these dark patches. The space-time image produced by the line-scan contained diagonal dark streaks formed by moving RBCs, with a slope that was inversely proportional to the centerline RBC velocity. This space-time image was then computationally processed using Matlab and Python to extract the gradient of each streak, corresponding to the RBC velocity. Briefly, diagonal filters of varying gradients were tested for each streak until the gradient that fit best was found. […] The blood flow rate was determined through the following formula: […]
Therefore, vessel diameters, red blood cell (RBC) velocity, and blood flow were evaluated in the cerebral cortex of saline-treated Gabrb3^fl/fl mice, saline-treated Gabrb3^ECKO mice, and NAD^+-treated Gabrb3^ECKO mice (FIGS. 14A-14F) using multiphoton laser-scanning microscopy (MPLSM) and a sophisticated cranial window model. […]

[4] = adult, after prenatal treatment

NC(=O)c1ccc[n+]([C@@H]2O[C@H](COP(=O)([O-])OP(=O)(O)OC[C@H]3O[C@@H](n4cnc5c(N)ncnc54)[C@H](O)[C@@H]3O)[C@@H](O)[C@H]2O)c1 [NAD^+]
nest building ability (Gabrb3^ECKO mice [1]): significant improvement in their nest building ability | immobility times (Gabrb3^ECKO mice [2]): significantly lower immobility times | cellular arrangement in MGE (H&E) (Gabrb3^fl/fl littermates): the same distinct cellular arrangement in the MGE | RBC velocity in capillaries [3, 4]: reversed | diameter of capillaries and collecting venules [3, 4]: morphological alteration was rescued | blood flow in capillaries and collecting venules ([3]; vs saline-treated Gabrb3^ECKO mice): significantly reduced
